These results are taken from US20020187123A1, “Therapeutic compositions and methods for the inhibition of angiogenesis” (priority 2001, published 2002).

The test system of test [1] is isolated, cultured human endothelial cells. The test is described as follows: Endostatin responsiveness of isolated, cultured human endothelial cells. It is filed as cell-based.
The subject of test [2] is bFGF-stimulated corneal angiogenesis. The test is described as follows: Corneal angiogenesis assay. It is filed as in vivo, mice. The following applies: delivered by intraperitoneal osmotic pump. From the text:
The effect of endostatin on bFGF-stimulated corneal angiogenesis was examined in wild type and E-selectin deficient mice.

Test [3] relates to VEGF-stimulated endothelial vessel formation by aortic endothelium. The test is described as follows: Aortic ring explant assay of endothelial vessel morphogenesis. It is filed as cell-based. The note with it: aortae of wild type mice. From the text: The results described above were extended using an aortic ring explant assay of endothelial vessel morphogenesis. […] The more rapid and extensive growth in E-selectin deficient aortae is therefore consistent with the hypothesis that E-selectin is required for endostatin activity.

In test [4] the test system is tumor growth. The note with it: mouse model; cited from earlier work.

For tumor necrosis factor-alpha, in test [1] (isolated cultured human endothelial cells, even in the presence of E-selectin), the “effect on endostatin responsiveness” value was “appears to block and/or prevent endostatin responsiveness”.

For the molecule endostatin, the “effect on FGF-stimulated corneal angiogenesis” value is listed as “not in the E-selectin deficient mice” in test [2] (E-selectin deficient mice) and “inhibited FGF-stimulated angiogenesis” in test [2] (wild type mice). Besides, in test [3], the “effect on vessel formation” value is reported as “vessel formation was inhibited”. In test [4], the “effect on tumor growth” value is “dramatic reduction in tumor growth”.

B1: E-selectin (protein, UniProt P16581 22-610, looked up)
E-selectin: WSYNTSTEAMTYDEASAYCQQRYTHLVAIQNKEEIEYLNSILSYSPSYYWIGIRKVNNVWVWVGTQKPLTEEAKNWAPGEPNNRQKDEDCVEIYIKREKDVGMWNDERCSKKKLALCYTAACTNTSCSGHGECVETINNYTCKCDPGFSGLKCEQIVNCTALESPEHGSLVCSHPLGNFSYNSSCSISCDRGYLPSSMETMQCMSSGEWSAPIPACNVVECDAVTNPANGFVECFQNPGSFPWNTTCTFDCEEGFELMGAQSLQCTSSGNWDNEKPTCKAVTCRAVRQPQNGSVRCSHSPAGEFTFKSSCNFTCEEGFMLQGPAQVECTTQGQWTQQIPVCEAFQCTALSNPERGYMNCLPSASGSFRYGSSCEFSCEQGFVLKGSKRLQCGPTGEWDNEKPTCEAVRCDAVHQPPKGLVRCAHSPIGEFTYKSSCAFSCEEGFELHGSTQLECTSQGQWTEEVPSCQVVKCSSLAVPGKINMSCSGEPVFGTVCKFACPEGWTLNGSAARTCGATGHWSGLLPTCEAPTESNIPLVAGLSAAGLSLLTLAPFLLWLRKCLRKAKKFVPASSCQSLESDGSYQKPSYIL
notes: a cell surface glycoprotein expressed by the endothelium
On to B1, for which, in test [1] (isolated, cultured human endothelial cells), the “effect on endostatin responsiveness” value is on record as “can be sufficient to confer endostatin responsiveness”.
